Where two headings read alike, the source gives them in different places. Values belong to the molecule of their own block, whether it stands above or below them.
What was measured:
[1] = tested on: haematological malignancies; details: cited from earlier work
PI3K γ = PI3K γ (Homo sapiens (Human), UniProt P48736); test: PI3-Kinase Promega ADP-Glo Max assay, γ isoform; type: biochemical
PI3K-γ = PI3K-γ (Mus musculus (Mouse), UniProt Q9JHG7); test: Raw264.7 p110 γ assay (C5a-mediated phospho-AKT in RAW264.7 macrophages); type: cell-based
PI3K-δ = PI3K-δ (Homo sapiens (Human), UniProt O00329); test: RAJI p110 δ assay (phospho-AKT in anti-human IgM stimulated RAJI cells); type: cell-based
[2] = Pharmacokinetics of Compound 88 in female C57 mice, PO; type: in vivo, mouse; details: for tlast / AUC: female C57 mice; for AUC: mouse, plasma, read-out: AUC0_INF
Procedure: Animals were weighed daily prior to dosing. […] On subsequent dosing days, the animals' condition was noted prior to dosing; the animals were observed within 4 hours of dosing, and at the end of the day.
Samples were collected at pre-dose 0.25, 0.5, 1, 2, 4, 6 and 24 h following the first dose on day 1 and pre-dose (trough), 0.25, 0.5, 1, 2, 4, 6 and 24 h following the final dose on day 3. Animals received a single oral dose daily for 3 consecutive days. Blood was collected by retro-orbital bleeding for all time points on day 1. All other blood sampling was collected by a cardiac puncture. Blood was collected into K2EDTA tubes and placed on wet ice. Within 15 min of collection, the sample was centrifuged at 10,000 rpm at 4° C. for 10 min in a bench top centrifuge and the plasma transferred to a new microcentrifuge tube.
A similar study was carried out using Compound 88. […] Below is a table that details the results for Compound 88: […]

[3] = tested on: IL-8 induced neutrophil migration; test: IL-8 driven murine air pouch model; type: in vivo; details: mouse; Compound BB 0.1, 0.3, 1, 3 mg/kg; Compound AA 10, 25, about 50 mg/kg; vs vehicle
Text: IL-8 chemoattracts and activates neutrophils.

[4] = Oral PK in the rat LPS studies (free plasma concentration); type: in vivo; details: for Free Plasma Conc (nM): p.o. 0.2 mg/kg
Procedure: (§1) This study also includes assessment of the exposure to the compounds in plasma and lung tissues.
(§2) Ref C is budesonide p.o. The compound was administered p.o. and about 1 hour later, LPS was administered intra-tracheally and plasma was collected. After about 5 hours, plasma and bronchoalveolar lavage samples were collected.

[5] = tested on: CXCL12 induced p-AKT in bone marrow derived macrophages; test: CXCL12-induced p-AKT induction assay in differentiated, polarized macrophages; type: cell-based, mouse
Text: Long bones from young C57B6 mice were harvested and bone marrow was extruded by gentle lavage of the bone marrow cavities with a 28 gauge needle. Red blood cells were removed using red blood cell lysis buffer (Sigma). Bone marrow cells were differentiated to macrophages using MCSF for 6 days (RPMI and 20% FCS) with one media change (with removal of all non-adherent cells) at day 3. Macrophages were polarized into M0 (MCSF), M1 (MCSF, IFNγ, and LPS for 1 day), or M2 (MCSF, IL4 for 2 days).
Polarized macrophages were lifted with Acutase, and plated at 0.5M cells per well (0.5 ml) in a deep well (2 ml) non adherant plate in polarization media for 1 hour. […] CXCL12 was added, and the cells were mixed on a plate shaker for 2 minutes. 1 ml of 37 degree FACS Lyse/fix buffer (BD bioscience) was added and the plate was mixed for 1 minute. The plates were spun and decanted and frozen at −80° C. Phospho AKT staining with anti Phospho AKT 473 PERCP labeled (Cell Signaling Technologies) was performed and measured by flow cytometry. Total cell MFI was used to calculate the effect of tested compound on CXCL12 induction of phospho AKT.

[6] = tested on: CXCL12-induced T cell migration; test: CXCL12-induced T-cell migration in CLL PBMCs (transwell); type: cell-based; details: Homo sapiens
Procedure: Specifically, the material used were media (RPMI+0.5% Fetal Bovine Serum+Pen/Strep), total CLL PBMCs (AllCells), CoStar 24-transwell plates ([…]) #3421, BD Cytofix Fixation Buffer (#554655), BD FBS Stain Buffer (BD Biosciences, 554656), Deep 96-well plate (Axygen, P-2ML-SQ-C), rhCXCL12 (R&D, 350-NS-050), CD-19 APC Cy7 (BD #348794 1:20), CD3-PerCPCy5.5 (BD #560835, 1:20), CD5-PE (Biolegend #300608, 1:5), CD4-FITC (BD #561842, 1:20), and CD8-APC (BD #561953, 1:20).
Total CLL human PBMCs were preincubated with Compound AA or BB in media for 45 minutes at 37° C. […] After the 45 minutes of compound preincubation, 500-750K CLL PBMCs were placed in the upper chamber of the transwell insert in a total volume of 100 uL. The cells were allowed to migrate for 2-4 hours at 37° C. The inserts were removed, and 550 uL media from lower chamber were transferred into a deep 96-well plate. The cells were spun at 1280 rpm for 5 minutes and flick media. The cells were resuspended in 400 uL BD Cytofixation buffer and incubated at RT for 10 minutes. 1 mL BD FBS stain buffer was added. The cells were spun at 1280 rpm and fixation buffer was disposed. The cells were resuspended in 100 uL of CD3,4,8,5,19 antibody cocktail made up in BD FBS stain buffer, which was then incubated at room temperature in the dark for 30-60 minutes. 1 mL BD FBS stain buffer was added to each well, which was then spun and flicked. The cells were resuspended in 150 uL FBS stain buffer and transferred to FACS tubes already containing 150 uL FBS stain buffer. Each sample was read on the FACS for 25 seconds. Gate on CD3, 4, 8 and CD19/5 subpopulations individually and calculate average migration index from triplicate samples. See e.g., Borge et al., haematologica 2010, 95(5): 768-775; de Rooij et al., Blood 2012, 119: 2590-2594.

human T cells = test: Concanavalin A-induced model for activation of human T cells (IFN-γ); type: cell-based
[7] = tested on: LPS-induced neutrophil influx into BALF; test: LPS-induced neutrophilia in rats, oral administration; type: in vivo; details: rat, p.o., 4 hours post-LPS challenge; dose dependent
Procedure: as §1, §2

[8] = tested on: T cell activation (IFN-γ in response to ConA); test: T cell activation in human whole blood (Con-A, IFN-γ readout); type: cell-based; details: 24 hours, read-out: IC50, T cell activation as measured by inhibition of IFN-γ
Procedure: The purpose of this study is to evaluate the effect of various antigens (Con-A) in T cell activation in Human Whole Blood vs. 1:1 Diluted Blood using test compounds at 24 hour time-point.
T-cell Activation Media includes RPMI-1000 ml, MEM NEAA-10 ml, Sodium Pyruvate (100 mM)-10 ml, Pen Strep-10 ml, 2-Mercaptoethanol-1 ml, and FBS-100 ml. 100 ul of whole blood were plated in 96 well plate. Used only the 60 inside wells and filled the outside with media or PBS. Diluted human whole blood with 5% Serum RPMI 1640 1:1 and plate 100 ul in 96 well plate. Used only the 60 inside wells and filled the outside with media or PBS.
The compound was diluted using DMSO (Sigma hybridmax). For 1000 nM highest concentration starting from a 10 mM stock, added 300 ul of DMSO into deep well plates. To the highest concentration add 10 ul of 10 mM compound stock.
A media plate was prepared from DMSO plate by taking 100 ul and go into 900 ul media in new deep well plate, taping plate, and putting on mixer for 5 minutes.
The rested cell plates were removed from incubator. Added 12 uL of diluted compound from media plate (final DMSO is 1%), and incubated for 45 minutes.
Con-A was prepared as follows: 200 ul stock into 1 ml Media, 100 ul of that into 1 ml Media, 100 ul of that into 1 ml Media. […] This was analyzed after 24 Hours.
10× stock in media, added 12 ul per well. […] Analyzed with multiplex elisa from MSD. […]

LLC tumor brei = LLC tumor brei model, Compound BB with or without cyclophosphamide; type: in vivo, mouse; details: Compound BB 15 mg/kg QD PO, cyclophosphamide 50 mg/kg EOD IP

Chain of PI3K-γ (Q9JHG7 whole entry): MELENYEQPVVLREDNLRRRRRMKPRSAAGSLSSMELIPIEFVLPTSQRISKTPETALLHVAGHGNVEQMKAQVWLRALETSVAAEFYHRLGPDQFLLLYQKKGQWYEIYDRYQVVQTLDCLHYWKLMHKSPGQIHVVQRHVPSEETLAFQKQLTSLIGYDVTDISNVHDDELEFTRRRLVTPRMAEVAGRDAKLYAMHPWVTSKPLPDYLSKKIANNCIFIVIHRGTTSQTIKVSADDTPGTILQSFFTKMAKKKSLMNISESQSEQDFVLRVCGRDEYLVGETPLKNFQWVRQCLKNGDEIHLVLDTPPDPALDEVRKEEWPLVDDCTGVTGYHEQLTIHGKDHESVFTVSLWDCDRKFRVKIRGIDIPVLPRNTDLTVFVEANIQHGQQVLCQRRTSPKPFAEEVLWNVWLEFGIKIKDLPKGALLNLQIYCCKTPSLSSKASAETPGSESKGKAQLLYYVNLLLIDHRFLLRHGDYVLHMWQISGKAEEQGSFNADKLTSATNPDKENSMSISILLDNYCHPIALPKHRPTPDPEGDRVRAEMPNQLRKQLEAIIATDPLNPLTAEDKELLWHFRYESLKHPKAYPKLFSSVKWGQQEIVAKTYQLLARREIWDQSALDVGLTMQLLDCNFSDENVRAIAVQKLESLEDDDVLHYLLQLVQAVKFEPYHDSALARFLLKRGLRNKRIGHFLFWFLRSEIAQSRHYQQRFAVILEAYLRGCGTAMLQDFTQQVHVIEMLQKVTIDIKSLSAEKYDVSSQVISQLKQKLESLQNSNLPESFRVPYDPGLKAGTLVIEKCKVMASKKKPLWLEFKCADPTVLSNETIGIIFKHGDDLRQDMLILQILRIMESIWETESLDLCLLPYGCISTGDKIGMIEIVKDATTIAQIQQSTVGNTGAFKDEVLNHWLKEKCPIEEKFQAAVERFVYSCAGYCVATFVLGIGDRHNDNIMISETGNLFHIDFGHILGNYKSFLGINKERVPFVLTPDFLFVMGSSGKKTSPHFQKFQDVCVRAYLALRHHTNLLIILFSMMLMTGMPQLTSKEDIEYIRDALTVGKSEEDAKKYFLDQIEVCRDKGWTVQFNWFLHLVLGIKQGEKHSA
Chain of PI3K-δ (O00329 whole entry): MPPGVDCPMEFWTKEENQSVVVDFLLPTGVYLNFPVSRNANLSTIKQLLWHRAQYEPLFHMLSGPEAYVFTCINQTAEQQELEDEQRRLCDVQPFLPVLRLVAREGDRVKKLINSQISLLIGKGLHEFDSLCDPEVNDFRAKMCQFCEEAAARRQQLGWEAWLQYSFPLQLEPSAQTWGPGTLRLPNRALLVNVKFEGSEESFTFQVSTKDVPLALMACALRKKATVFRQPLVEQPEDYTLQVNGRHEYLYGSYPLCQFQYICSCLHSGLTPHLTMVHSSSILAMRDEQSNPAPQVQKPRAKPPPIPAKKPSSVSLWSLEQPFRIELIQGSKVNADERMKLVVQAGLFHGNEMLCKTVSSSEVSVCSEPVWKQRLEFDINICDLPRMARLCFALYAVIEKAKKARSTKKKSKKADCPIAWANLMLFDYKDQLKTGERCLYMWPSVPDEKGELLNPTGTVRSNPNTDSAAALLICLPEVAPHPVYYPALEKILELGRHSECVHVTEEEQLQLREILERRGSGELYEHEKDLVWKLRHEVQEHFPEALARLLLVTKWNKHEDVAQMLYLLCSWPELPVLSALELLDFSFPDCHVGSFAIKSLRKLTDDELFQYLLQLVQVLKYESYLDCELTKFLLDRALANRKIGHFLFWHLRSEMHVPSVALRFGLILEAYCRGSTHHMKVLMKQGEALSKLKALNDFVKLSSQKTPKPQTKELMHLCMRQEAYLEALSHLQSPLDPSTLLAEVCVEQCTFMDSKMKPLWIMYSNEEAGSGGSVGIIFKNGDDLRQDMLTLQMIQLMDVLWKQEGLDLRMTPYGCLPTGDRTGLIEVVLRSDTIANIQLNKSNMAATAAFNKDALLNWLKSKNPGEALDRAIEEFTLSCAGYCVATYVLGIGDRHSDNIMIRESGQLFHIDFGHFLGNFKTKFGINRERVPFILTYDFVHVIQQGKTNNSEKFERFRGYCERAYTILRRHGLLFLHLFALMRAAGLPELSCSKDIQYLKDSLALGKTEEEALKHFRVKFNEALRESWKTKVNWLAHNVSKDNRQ
Chain of PI3K-δ (P27986 whole entry partner): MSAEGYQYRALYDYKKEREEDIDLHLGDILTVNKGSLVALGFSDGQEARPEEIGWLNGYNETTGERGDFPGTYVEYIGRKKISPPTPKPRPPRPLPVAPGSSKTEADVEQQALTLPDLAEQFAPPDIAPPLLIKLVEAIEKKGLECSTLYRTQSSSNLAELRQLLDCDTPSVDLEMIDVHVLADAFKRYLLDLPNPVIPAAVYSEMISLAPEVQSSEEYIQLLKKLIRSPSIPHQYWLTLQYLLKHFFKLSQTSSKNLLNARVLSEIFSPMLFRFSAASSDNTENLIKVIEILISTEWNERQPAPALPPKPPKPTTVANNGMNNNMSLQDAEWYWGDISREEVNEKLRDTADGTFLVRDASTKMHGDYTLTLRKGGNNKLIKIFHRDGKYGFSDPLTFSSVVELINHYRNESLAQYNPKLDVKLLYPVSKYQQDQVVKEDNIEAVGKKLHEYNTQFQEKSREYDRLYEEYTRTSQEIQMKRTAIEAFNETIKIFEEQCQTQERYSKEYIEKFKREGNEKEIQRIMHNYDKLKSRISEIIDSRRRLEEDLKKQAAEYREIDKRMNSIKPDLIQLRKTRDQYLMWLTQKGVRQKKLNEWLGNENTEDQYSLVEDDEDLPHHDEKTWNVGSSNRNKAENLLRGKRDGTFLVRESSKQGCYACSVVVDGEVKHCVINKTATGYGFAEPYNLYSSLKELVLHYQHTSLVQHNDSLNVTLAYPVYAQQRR
Chain of PI3K γ (P48736 whole entry, canonical isoform): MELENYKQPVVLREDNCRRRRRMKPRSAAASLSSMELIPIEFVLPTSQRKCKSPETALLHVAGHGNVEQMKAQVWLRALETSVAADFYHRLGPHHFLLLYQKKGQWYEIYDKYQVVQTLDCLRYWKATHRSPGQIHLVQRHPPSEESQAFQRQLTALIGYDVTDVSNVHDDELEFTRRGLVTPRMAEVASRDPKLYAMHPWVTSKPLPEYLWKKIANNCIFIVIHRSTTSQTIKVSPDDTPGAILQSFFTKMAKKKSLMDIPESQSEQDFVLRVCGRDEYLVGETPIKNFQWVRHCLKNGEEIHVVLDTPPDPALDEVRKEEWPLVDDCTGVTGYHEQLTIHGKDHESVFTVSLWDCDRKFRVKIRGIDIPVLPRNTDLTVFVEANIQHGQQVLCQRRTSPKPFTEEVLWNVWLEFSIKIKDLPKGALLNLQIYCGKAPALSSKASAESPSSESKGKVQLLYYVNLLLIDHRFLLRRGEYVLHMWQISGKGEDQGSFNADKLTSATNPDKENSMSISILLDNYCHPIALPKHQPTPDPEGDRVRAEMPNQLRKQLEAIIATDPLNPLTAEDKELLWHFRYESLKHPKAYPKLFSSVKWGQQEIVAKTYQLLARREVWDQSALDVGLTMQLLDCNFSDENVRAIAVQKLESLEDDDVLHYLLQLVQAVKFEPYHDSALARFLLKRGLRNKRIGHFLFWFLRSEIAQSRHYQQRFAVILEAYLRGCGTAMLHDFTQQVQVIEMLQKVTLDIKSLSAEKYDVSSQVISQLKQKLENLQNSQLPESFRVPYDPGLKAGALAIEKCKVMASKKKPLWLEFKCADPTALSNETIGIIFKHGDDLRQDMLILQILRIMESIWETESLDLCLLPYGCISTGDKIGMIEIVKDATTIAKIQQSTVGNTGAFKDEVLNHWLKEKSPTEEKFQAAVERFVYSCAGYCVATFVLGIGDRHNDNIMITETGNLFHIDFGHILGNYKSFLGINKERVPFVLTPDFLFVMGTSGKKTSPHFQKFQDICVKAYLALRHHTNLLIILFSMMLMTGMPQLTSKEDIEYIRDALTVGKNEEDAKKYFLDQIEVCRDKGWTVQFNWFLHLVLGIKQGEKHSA

Structure (SMILES): CC[C@H](Nc1ncnc2[nH]cnc12)c1nc2cccc(F)c2c(=O)n1-c1ccccc1 [CAL-101]
clinical activity in CLL ([1]; phase 1 trial, patients with poor prognostic characteristics): showed activity
clinical activity in mantle cell lymphoma and refractory non Hodgkin's lymphoma ([1]; single agent): active

PI3K δ/PI3K γ IC50 (selectivity) (PI3K γ): Y (Y = 50 to <850)
RAJI δ/Raw264.7 γ IC50 (selectivity) (PI3K-γ): X (X = 10 to <50)
IC50 (PI3K-γ; phospho-AKT): 1 to 50 nM
IC50 (PI3K-δ): 100 to 500 nM
Structure (SMILES): C[C@H](NC(=O)c1c(N)nn2cccnc12)c1cc2cccc(C#Cc3ccn[nH]3)c2c(=O)n1-c1ccccc1 [Compound 43]

tlast ([2]; 2 mg/kg PO NMP): 8 h
tlast ([2]; 7.5 mg/kg PO NMP): 24 h
tlast ([2]; 15 mg/kg PO NMP): 24 h
Stability in serum ([2]; female C57 mice, 2, 7.5 or 15 mg/kg PO): good stability in serum
AUC ([2]; 7.5 mg/kg PO NMP): 20700 ng·h/mL
AUC ([2]; 15 mg/kg PO NMP): 81200 ng·h/mL
Structure (SMILES): Cc1c(C#Cc2cccc3nc([C@H](C)NC(=O)c4c(N)nn5cccnc45)n(-c4ccccc4)c(=O)c23)cnn1C [Compound 88, (S)-2-amino-N-(1-(5-((1,5-dimethyl-1H-pyrazol-4-yl)ethynyl)-4-oxo-3-phenyl-3,4-dihydroquinazolin-2-yl)ethyl)pyrazolo[1,5-a]pyrimidine-3-carboxamide]

Structure (SMILES): CC(C)n1c([C@H](C)Nc2ncnc(N)c2C#N)cc2cccc(-c3ccc(=O)n(C)c3)c2c1=O [Compound AA, reference compound]
IL-8 induced neutrophil migration into air pouch [3]: does not inhibit IL-8 induced neutrophil migration
Free plasma levels relative to IC90 of the target isoform ([4]; highest dose levels, gamma for Compound BB, delta for Compound AA): equal or greater than the IC90
Free Plasma Conc (nM) ([4]; 1.5 h (time of LPS challenge)): BLQ
Free Plasma Conc (nM) ([4]; […] (about 4 hours post LPS challenge)): BLQ
IC50, CXCL12 induced p-AKT ([5]; differentiated and M1 polarized macrophage): did not significantly inhibit
IC50, CXCL12 induced p-AKT ([5]; differentiated and M2 polarized macrophage): did not significantly inhibit
EC50 ([6]; T-cell subset CD3+, read-out: EC50 (nM), CXCL12 induced T-cell migration): 630 ± 71 nM
EC50 ([6]; T-cell subset CD4+, read-out: EC50 (nM), CXCL12 induced T-cell migration): 726 ± 230 nM
EC50 ([6]; T-cell subset CD8+, read-out: EC50 (nM), CXCL12 induced T-cell migration): 423 ± 290 nM
EC50 ([6]; read-out: EC50, inhibition of CXCL12-induced CD3+ T cell migration (FIG. 8)): 694 nM
inhibition of IFN-γ (human T cells): highly selective inhibitor
Neutrophil in bronchoalveolar lavage fluid (BALF) [7]: reduced neutrophil in bronchoalveolar lavage fluid (BALF)
IC50 [8]: 3 nM

Structure (SMILES): O=P1(N(CCCl)CCCl)NCCCO1 (centres unmarked) [cyclophosphamide, reference compound]
Tumor growth (FIG. 48) (LLC tumor brei): reduced tumor growth by about the same amount

From patent US10675286B2, “Heterocyclic compounds and uses thereof” (Infinity Pharmaceuticals, Inc., priority 2014, dated 2020)
